Test results: US11497813B2, “Bortezomib conjugates and methods using same” (Frank EBETINO et al., priority 2015, dated 2022)
Entries after “also recorded” stand apart in the source; their conditions may differ.

Experiments:
C57/B6 mice = assay: Systemic toxicity in C57/B6 mice, daily treatment for 3 weeks; format: in vivo
Description: C57/B6 mice, 7 w, BP or Btz (0.6 mg/kg), BP-Btz (1.2 mg/k), daily for 3 weeks. FIG. 29A depicts the groups and treatment used in the experimental examples. FIG. 29B depicts a table of experimental data of body weight before and after treatment. […] FIG. 29D depicts experimental data of bone marrow.

[1] = system: bone resorption and formation; assay: In vivo dose-response experiments on bone resorption and formation
Description: In vitro testing is also used to examine analogues of BP-Btz1.

osteoclasts = assay: Osteoclast formation and bone resorption on bone slices pre-incubated with compound; format: cell-based, mouse
Description: FIG. 5A is a scheme of an exemplary synthesis of compound BP-Btz1. FIG. 5B is a series of images of bone slices pre-incubated with 1 μM BP-Btz1, Btz, or bisphosphonate (BP) overnight. Drug solutions were removed and bone slices were washed with PBS extensively. […] (BM) cells from UB^G76V-GFP mice were cultured on bone slices in the presence of M-CSF and RANKL for 9 days. Top images (a): GFP^+ cells were observed under a fluorescence microscope and GFP signal intensity was quantified. Middle images (b): bone slices were fixed and subjected to TRAP staining for osteoclasts (OCs). OC #/slice were counted. Bottom images (c): cells were removed from slices. Toluidine blue staining was performed and pit areas/slice were counted. FIG. 5C is a series of images of murine BM cells cultured and stained for ALP. FIG. 5D is a series of images of human MSCs cultured and stained for ALP. Murine BM cells and human MSCs were cultured in the OB-inducing medium plus different concentrations of BP-Btz1 or Btz for 4 or 6 days, respectively. Cells were stained for ALP. The ALP^+ areas were measured by Image J. *P<0.05 vs. Btz-treated cells.
As a control, the effects of the non-bioactive bisphosphonate (BP) that would be released in the bone compartment were also studied. […] In a pivotal in vitro study, this BP-Btz1 and Btz were independently incubated with bone slices for 24 hours, after which the bone slices were removed and placed in culture wells with fresh media along with osteoclast precursors. […]
1. […] Following proteasome inhibitor administration, Ub^G76V accumulates and GFP fluorescence is readily apparent. GFP^+ OCs were detected at 4 and 8 hrs after adding Btz to OC cultures, which disappeared at 24 hrs. […] The number and area of OCs and resorption pits are assessed. The appearance, intensity and distribution of GFP^+ cells on bone slices and plastic surrounding bone slices during OC formation is observed and recorded. […] Area of ALP^+ and mineralized bone nodule, and the expression levels of OB marker genes (ALP, osteocalcin, Runx2) are measured. […]

For `CC(C)C[C@H](NC(=O)[C@H](Cc1ccccc1)NC(=O)c1cnccn1)B1OCCN(CCOC(=O)NC(P(=O)(O)O)P(=O)(O)O)CCO1` [BP-Btz1], the “B cell numbers in bone marrow” value (C57/B6 mice; C57/B6 mice, 7 w, daily for 3 weeks) was “reduces B cell numbers”, the systemic toxicity (C57/B6 mice; C57/B6 mice, daily for 3 weeks, compared with Btz) was “less systemic toxicity than Btz” and the “toxic effect on neurons (dorsal root ganglia)” value (C57/B6 mice; EM images of dorsal root ganglia) was “prevents toxic effect on neurons”. For the same molecule, the bone resorption [1] was “inhibits bone resorption”, the bone formation ([1]; compared with Btz alone) was “stimulates formation at doses lower than effective doses of Btz alone” and the osteoclast function (osteoclasts) was “maintains its bioactivity on inhibition of OCs; also recorded: inhibits osteoclast function”. The “Formation and activity of osteoclasts on pre-incubated bone slices” value (osteoclasts; bone slices pre-incubated with compound (1 μM, 24 hours), removed, then osteoclast precursors in fresh media) was “significantly reduced” and the “anti-osteoclast activity on bone slices” value (osteoclasts; in vitro studies on bone slices, compared with Btz) was “anti-osteoclast activity equivalent to than Btz itself”.
